Consider two compounds from patent US20230399342A1 (Incyte Corporation, priority 2022, published 2023).

Test [1] has as its target DGKα (Homo sapiens (Human), UniProt P23743). The test can be described thus: In vitro DGKα inhibition assay (ADP-Glo). Type of test: biochemical. The note with it: His-tagged human recombinant enzyme, 0.1 nM DGKα, 50 μM ATP, 20 μM DLG, 90 minute incubation. In short, it runs like this:
(§1)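 His-tagged human DGKα (0.1 nM, 50 μM ATP) or DGKζ (0.4 nM, 30 μM ATP), each with 20 μM DLG, in Tris pH 7.5 buffer with CHAPS, Mg2+, Ca2+.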
For orientation: ADP-Glo first removes unused ATP, then detects ADP through luciferase.

Test [2] has as its target DGKζ (Homo sapiens (Human), UniProt Q13574). The test is described as follows: In vitro DGKζ inhibition assay (ADP-Glo). The format is biochemical. Particulars: His-tagged human recombinant enzyme, 0.4 nM DGK, 30 μM ATP, 20 μM DLG, 90 minute incubation. In short, it runs like this: as §1

Chain of DGKζ (Q13574 whole entry): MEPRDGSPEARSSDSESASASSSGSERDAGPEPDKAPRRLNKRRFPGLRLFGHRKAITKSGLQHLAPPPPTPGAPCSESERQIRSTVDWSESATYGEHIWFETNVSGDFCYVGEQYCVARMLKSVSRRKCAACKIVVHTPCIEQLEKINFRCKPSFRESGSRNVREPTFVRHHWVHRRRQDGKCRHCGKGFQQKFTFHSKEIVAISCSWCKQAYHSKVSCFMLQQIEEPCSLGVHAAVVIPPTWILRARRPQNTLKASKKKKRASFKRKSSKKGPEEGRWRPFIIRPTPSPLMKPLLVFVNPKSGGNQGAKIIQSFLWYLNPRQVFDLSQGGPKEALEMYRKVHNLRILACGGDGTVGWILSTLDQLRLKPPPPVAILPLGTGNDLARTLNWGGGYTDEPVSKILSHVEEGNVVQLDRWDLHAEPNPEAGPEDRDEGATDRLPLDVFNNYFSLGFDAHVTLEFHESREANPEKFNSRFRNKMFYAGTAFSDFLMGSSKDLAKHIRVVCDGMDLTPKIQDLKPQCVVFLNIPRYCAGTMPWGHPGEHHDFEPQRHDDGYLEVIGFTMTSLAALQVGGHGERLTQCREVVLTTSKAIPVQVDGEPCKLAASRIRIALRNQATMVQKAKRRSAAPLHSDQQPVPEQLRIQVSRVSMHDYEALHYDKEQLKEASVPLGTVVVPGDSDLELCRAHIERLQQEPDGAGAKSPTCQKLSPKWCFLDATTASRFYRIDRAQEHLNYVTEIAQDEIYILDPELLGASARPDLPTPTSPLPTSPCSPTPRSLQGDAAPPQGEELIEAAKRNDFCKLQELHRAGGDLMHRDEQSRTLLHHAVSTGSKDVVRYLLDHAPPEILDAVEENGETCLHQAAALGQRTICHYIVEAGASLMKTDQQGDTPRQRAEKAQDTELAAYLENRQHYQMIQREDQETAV
Chain of DGKα (P23743 whole entry): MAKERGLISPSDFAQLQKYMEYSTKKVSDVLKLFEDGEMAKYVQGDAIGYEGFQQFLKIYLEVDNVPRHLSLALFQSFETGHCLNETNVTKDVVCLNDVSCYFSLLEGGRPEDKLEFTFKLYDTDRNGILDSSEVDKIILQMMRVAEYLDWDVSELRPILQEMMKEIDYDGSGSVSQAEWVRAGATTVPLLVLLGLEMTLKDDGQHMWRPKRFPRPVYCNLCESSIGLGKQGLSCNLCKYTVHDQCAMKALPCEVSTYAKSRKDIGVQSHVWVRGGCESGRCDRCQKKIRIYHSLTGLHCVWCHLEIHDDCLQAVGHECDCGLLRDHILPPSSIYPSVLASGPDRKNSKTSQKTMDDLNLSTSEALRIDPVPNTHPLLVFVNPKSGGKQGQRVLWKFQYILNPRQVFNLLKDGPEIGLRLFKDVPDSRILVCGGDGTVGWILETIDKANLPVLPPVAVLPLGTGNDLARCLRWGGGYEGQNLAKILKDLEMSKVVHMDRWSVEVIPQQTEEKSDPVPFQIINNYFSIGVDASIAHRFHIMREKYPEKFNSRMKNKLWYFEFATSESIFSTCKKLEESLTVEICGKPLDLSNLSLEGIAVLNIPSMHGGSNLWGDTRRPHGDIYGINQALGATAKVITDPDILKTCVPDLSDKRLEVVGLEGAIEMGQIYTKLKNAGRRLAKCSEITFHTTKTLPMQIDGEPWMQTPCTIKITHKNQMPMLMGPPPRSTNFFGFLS

In general, IC50 refers to the concentration that gives 50% inhibition. In the case of `C[C@@H]1CN(c2nc3nncn3c3sc(CCC#N)nc23)[C@@H](C)CN1C(c1ccc(F)cc1)c1ccc(F)cc1` [Example 4, 3-(4-((2S,5R)-4-(Bis(4-fluorophenyl)methyl)-2,5-dimethylpiperazin-1-yl)thiazolo[4,5-e][1,2,4]triazolo[4,3-a]pyrimidin-2-yl)propanenitrile], the figures for the concentration for half-maximal inhibition (IC50) in test [1] and in test [2] were ≤ 20 nM and 200 to 2000 nM, respectively.
With `C[C@H]1CN(C(c2ccc(F)cc2)c2ccc(F)cc2)[C@H](CC#N)CN1c1nc2nnc(C3CC3)n2c2scnc12` [Example 15, 2-((2R,5S)-1-(Bis(4-fluorophenyl)methyl)-4-(8-cyclopropylthiazolo[4,5-e][1,2,4]triazolo[4,3-a]pyrimidin-4-yl)-5-methylpiperazin-2-yl)acetonitrile], the concentration for half-maximal inhibition (IC50) was 20 to 200 nM in test [1] and ≤ 20 nM in test [2].
